{"source": "PubChem BioAssay AID1963875", "about": "(Molecular Pharmacology Branch, DTP, NCI, 2024);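 as to viability, T/C: viability read after seven days of compound exposure; 100% = DMSO vehicle-treated spheroids so lower means less viable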", "system": "KRAS-mutant PDC complex spheroid viability", "assay": "Anticancer human tumor 186277-243-T-J2-PDC patient-derived colon adenocarcinoma cell line growth inhibition [KRAS2]", "details": "for viability, T/C: stronger effect = lower value", "how_it_was_run": "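KRAS-mutant tumor cells were grown as spheroids with HUVEC endothelial cells and human MSCs as stroma. Targeted agents were tested alone and with KRAS pathway inhibitors. Doses started at or near clinical Cmax, or 10 microM, descending half-log.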", "key": {"[1]": {"details": "curve of first compound, second compound 0.1 µM"}, "[2]": {"details": "curve of first compound, second compound 0.316 µM"}, "[3]": {"details": "curve of first compound, second compound 1 µM"}, "[4]": {"details": "curve of first compound, second compound 3.16 µM"}, "[5]": {"details": "second compound 0.1 µM, first compound 0.000316 µM"}, "[6]": {"details": "second compound 0.1 µM, first compound 0.001 µM"}, "[7]": {"details": "second compound 0.1 µM, first compound 0.00316 µM"}, "[8]": {"details": "second compound 0.1 µM, first compound 0.01 µM"}, "[9]": {"details": "second compound 0.1 µM, first compound 0.0316 µM"}, "[10]": {"details": "second compound 0.316 µM, first compound 0.000316 µM"}, "[11]": {"details": "second compound 0.316 µM, first compound 0.001 µM"}, "[12]": {"details": "second compound 0.316 µM, first compound 0.00316 µM"}, "[13]": {"details": "second compound 0.316 µM, first compound 0.01 µM"}, "[14]": {"details": "second compound 0.316 µM, first compound 0.0316 µM"}, "[15]": {"details": "second compound 1 µM, first compound 0.000316 µM"}, "[16]": {"details": "second compound 1 µM, first compound 0.001 µM"}, "[17]": {"details": "second compound 1 µM, first compound 0.00316 µM"}, "[18]": {"details": "second compound 1 µM, first compound 0.01 µM"}, "[19]": {"details": "second compound 1 µM, first compound 0.0316 µM"}, "[20]": {"details": "second compound 3.16 µM, first compound 0.000316 µM"}, "[21]": {"details": "second compound 3.16 µM, first compound 0.001 µM"}, "[22]": {"details": "second compound 3.16 µM, first compound 0.00316 µM"}, "[23]": {"details": "second compound 3.16 µM, first compound 0.01 µM"}, "[24]": {"details": "second compound 3.16 µM, first compound 0.0316 µM"}}}
{"smiles": "CC(=O)Nc1cccc(-n2c(=O)n(C3CC3)c(=O)c3c(Nc4ccc(I)cc4F)n(C)c(=O)c(C)c32)c1", "note": "+ CNCc1ccccc1-c1csc(C(C)Nc2nc(C)nc3cc(OC)c(OC)cc23)c1", "values": [{"measurement": "IC50", "setting": "[1]", "value": 520, "unit": "pM"}, {"measurement": "IC50", "setting": "[2]", "value": 302, "unit": "pM"}, {"measurement": "IC50", "setting": "[3]", "value": 245, "unit": "pM"}, {"measurement": "IC50", "setting": "[4]", "value": "< 100", "unit": "pM"}, {"measurement": "IC50", "setting": "curve of first compound, second compound 10 µM", "value": "< 100", "unit": "pM"}, {"measurement": "viability, T/C", "setting": "second compound 0.1 µM, first compound 0.0001 µM", "value": 109, "unit": "%"}, {"measurement": "viability, T/C", "setting": "[5]", "value": 75.5, "unit": "%"}, {"measurement": "viability, T/C", "setting": "[6]", "value": 16.4, "unit": "%"}, {"measurement": "viability, T/C", "setting": "[7]", "value": 4.46, "unit": "%"}, {"measurement": "viability, T/C", "setting": "[8]", "value": 2.28, "unit": "%"}, {"measurement": "viability, T/C", "setting": "[9]", "value": 1.31, "unit": "%"}, {"measurement": "viability, T/C", "setting": "second compound 0.316 µM, first compound 0.0001 µM", "value": 103, "unit": "%"}, {"measurement": "viability, T/C", "setting": "[10]", "value": 47.9, "unit": "%"}, {"measurement": "viability, T/C", "setting": "[11]", "value": 10.8, "unit": "%"}, {"measurement": "viability, T/C", "setting": "[12]", "value": 3.37, "unit": "%"}, {"measurement": "viability, T/C", "setting": "[13]", "value": 1.77, "unit": "%"}, {"measurement": "viability, T/C", "setting": "[14]", "value": 1.09, "unit": "%"}, {"measurement": "viability, T/C", "setting": "second compound 1 µM, first compound 0.0001 µM", "value": 115, "unit": "%"}, {"measurement": "viability, T/C", "setting": "[15]", "value": 31.3, "unit": "%"}, {"measurement": "viability, T/C", "setting": "[16]", "value": 6.94, "unit": "%"}, {"measurement": "viability, T/C", "setting": "[17]", "value": 1.83, "unit": "%"}, {"measurement": "viability, T/C", "setting": "[18]", "value": 1.15, "unit": "%"}, {"measurement": "viability, T/C", "setting": "[19]", "value": 0.51, "unit": "%"}, {"measurement": "viability, T/C", "setting": "second compound 3.16 µM, first compound 0.0001 µM", "value": 40.6, "unit": "%"}, {"measurement": "viability, T/C", "setting": "[20]", "value": 0.37, "unit": "%"}, {"measurement": "viability, T/C", "setting": "[21]", "value": 0.04, "unit": "%"}, {"measurement": "viability, T/C", "setting": "[22]", "value": 0.02, "unit": "%"}, {"measurement": "viability, T/C", "setting": "[23]", "value": 0.02, "unit": "%"}, {"measurement": "viability, T/C", "setting": "[24]", "value": 0.11, "unit": "%"}, {"measurement": "viability, T/C", "setting": "second compound 10 µM, first compound 0.0001 µM", "value": 0.14, "unit": "%"}, {"measurement": "viability, T/C", "setting": "second compound 10 µM, first compound 0.000316 µM", "value": 0.11, "unit": "%"}, {"measurement": "viability, T/C", "setting": "second compound 10 µM, first compound 0.001 µM", "value": 0.1, "unit": "%"}, {"measurement": "viability, T/C", "setting": "second compound 10 µM, first compound 0.00316 µM", "value": 0.1, "unit": "%"}, {"measurement": "viability, T/C", "setting": "second compound 10 µM, first compound 0.01 µM", "value": 0.11, "unit": "%"}, {"measurement": "viability, T/C", "setting": "second compound 10 µM, first compound 0.0316 µM", "value": 0.18, "unit": "%"}]}
{"smiles": "CC(=O)OC12COC1CC(O)C1(C)C(=O)C(O)C3=C(C)C(OC(=O)C(O)C(NC(=O)OC(C)(C)C)c4ccccc4)CC(O)(C(OC(=O)c4ccccc4)C21)C3(C)C", "note": "(configuration not stated)", "values": [{"measurement": "viability, T/C", "setting": "compound 0.01 µM", "value": "5.72% [middle of 5 runs]"}, {"measurement": "viability, T/C", "setting": "compound 0.0316 µM", "value": "3.66% [middle of 5 runs]"}, {"measurement": "viability, T/C", "setting": "compound 0.1 µM", "value": "3.28% [middle of 5 runs]"}, {"measurement": "viability, T/C", "setting": "compound 0.316 µM", "value": "3.46% [middle of 4 runs]"}, {"measurement": "viability, T/C", "setting": "compound 1 µM", "value": "3.38% [middle of 5 runs]"}, {"measurement": "viability, T/C", "setting": "compound 3.16 µM", "value": "3.74% [middle of 5 runs]"}, {"measurement": "IC50", "setting": "curve of compound", "value": "< 10000", "unit": "pM"}]}
{"smiles": "Cn1ncnc1[C@H]1c2n[nH]c(=O)c3cc(F)cc(c23)N[C@@H]1c1ccc(F)cc1", "note": "+ C=CC(=O)N1CCN(c2nc(OCC3CCCN3C)nc3c2CCN(c2cccc4cccc(C)c24)C3)CC1CC#N", "values": [{"measurement": "IC50", "setting": "curve of first compound, second compound 0.0316 µM", "value": "> 100000", "unit": "pM"}, {"measurement": "IC50", "setting": "[1]", "value": "> 100000", "unit": "pM"}, {"measurement": "IC50", "setting": "[2]", "value": "> 100000", "unit": "pM"}, {"measurement": "IC50", "setting": "[3]", "value": "> 100000", "unit": "pM"}, {"measurement": "IC50", "setting": "[4]", "value": "< 316", "unit": "pM"}, {"measurement": "viability, T/C", "setting": "second compound 0.0316 µM, first compound 0.000316 µM", "value": 94.5, "unit": "%"}, {"measurement": "viability, T/C", "setting": "second compound 0.0316 µM, first compound 0.001 µM", "value": 109, "unit": "%"}, {"measurement": "viability, T/C", "setting": "second compound 0.0316 µM, first compound 0.00316 µM", "value": 100, "unit": "%"}, {"measurement": "viability, T/C", "setting": "second compound 0.0316 µM, first compound 0.01 µM", "value": 93.8, "unit": "%"}, {"measurement": "viability, T/C", "setting": "second compound 0.0316 µM, first compound 0.0316 µM", "value": 99.2, "unit": "%"}, {"measurement": "viability, T/C", "setting": "second compound 0.0316 µM, first compound 0.1 µM", "value": 79.8, "unit": "%"}, {"measurement": "viability, T/C", "setting": "[5]", "value": 114, "unit": "%"}, {"measurement": "viability, T/C", "setting": "[6]", "value": 98.5, "unit": "%"}, {"measurement": "viability, T/C", "setting": "[7]", "value": 110, "unit": "%"}, {"measurement": "viability, T/C", "setting": "[8]", "value": 94.9, "unit": "%"}, {"measurement": "viability, T/C", "setting": "[9]", "value": 98.3, "unit": "%"}, {"measurement": "viability, T/C", "setting": "second compound 0.1 µM, first compound 0.1 µM", "value": 80.5, "unit": "%"}, {"measurement": "viability, T/C", "setting": "[10]", "value": 92, "unit": "%"}, {"measurement": "viability, T/C", "setting": "[11]", "value": 109, "unit": "%"}, {"measurement": "viability, T/C", "setting": "[12]", "value": 106, "unit": "%"}, {"measurement": "viability, T/C", "setting": "[13]", "value": 108, "unit": "%"}, {"measurement": "viability, T/C", "setting": "[14]", "value": 90.1, "unit": "%"}, {"measurement": "viability, T/C", "setting": "second compound 0.316 µM, first compound 0.1 µM", "value": 79.4, "unit": "%"}, {"measurement": "viability, T/C", "setting": "[15]", "value": 103, "unit": "%"}, {"measurement": "viability, T/C", "setting": "[16]", "value": 95.4, "unit": "%"}, {"measurement": "viability, T/C", "setting": "[17]", "value": 105, "unit": "%"}, {"measurement": "viability, T/C", "setting": "[18]", "value": 84.8, "unit": "%"}, {"measurement": "viability, T/C", "setting": "[19]", "value": 70.8, "unit": "%"}, {"measurement": "viability, T/C", "setting": "second compound 1 µM, first compound 0.1 µM", "value": 63.4, "unit": "%"}, {"measurement": "viability, T/C", "setting": "[20]", "value": 0.19, "unit": "%"}, {"measurement": "viability, T/C", "setting": "[21]", "value": 0.19, "unit": "%"}, {"measurement": "viability, T/C", "setting": "[22]", "value": 0.16, "unit": "%"}, {"measurement": "viability, T/C", "setting": "[23]", "value": 0.18, "unit": "%"}, {"measurement": "viability, T/C", "setting": "[24]", "value": 0.21, "unit": "%"}, {"measurement": "viability, T/C", "setting": "second compound 3.16 µM, first compound 0.1 µM", "value": 0.27, "unit": "%"}]}
